Source: PubChem BioAssay (NCI)
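A five-concentration, 48-hour dose response in 96-well plates underlies each endpoint, interpolated linearly between surrounding concentrations. TGI marks complete inhibition of growth.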

How the values were obtained:
Assay in all cases: NCI tumour cell line growth inhibition, 48 h
HCT-15 colon = tested on: HCT-15 colon
HCC-2998 colon = tested on: HCC-2998 colon
OVCAR-5 ovarian = tested on: OVCAR-5 ovarian
SK-MEL-5 melanoma = tested on: SK-MEL-5 melanoma
NCI-H460 lung = tested on: NCI-H460 lung
A498 renal = tested on: A498 renal
SK-MEL-28 melanoma = tested on: SK-MEL-28 melanoma
RXF 393 renal = tested on: RXF 393 renal
RXF-631 renal = tested on: RXF-631 renal
DLD-1 colon = tested on: DLD-1 colon
XF 498 CNS = tested on: XF 498 CNS
OVCAR-4 ovarian = tested on: OVCAR-4 ovarian
UO-31 renal = tested on: UO-31 renal
OVCAR-3 ovarian = tested on: OVCAR-3 ovarian
NCI-H522 lung = tested on: NCI-H522 lung
NCI-H23 lung = tested on: NCI-H23 lung
UACC-257 melanoma = tested on: UACC-257 melanoma
SK-OV-3 ovarian = tested on: SK-OV-3 ovarian
EKVX NSCLC = tested on: EKVX NSCLC
MOLT-4 leukemia = tested on: MOLT-4 leukemia
SK-MEL-2 melanoma = tested on: SK-MEL-2 melanoma
CAKI-1 renal = tested on: CAKI-1 renal
LOX IMVI melanoma = tested on: LOX IMVI melanoma
HOP-92 NSCLC = tested on: HOP-92 NSCLC
TK-10 renal = tested on: TK-10 renal
NCI-H226 lung = tested on: NCI-H226 lung
SNB-78 CNS = tested on: SNB-78 CNS
IGROV1 ovarian = tested on: IGROV1 ovarian
MCF7 breast = tested on: MCF7 breast
OVCAR-8 ovarian = tested on: OVCAR-8 ovarian
SN12K1 renal = tested on: SN12K1 renal
SNB-75 CNS = tested on: SNB-75 CNS
786-0 renal = tested on: 786-0 renal
M19-MEL melanoma = tested on: M19-MEL melanoma
P388/ADR leukemia = tested on: P388/ADR leukemia
P388 leukemia = tested on: P388 leukemia
NCI/ADR-RES ovarian = tested on: NCI/ADR-RES ovarian
SF-295 CNS = tested on: SF-295 CNS
U251 CNS = tested on: U251 CNS
SN12C renal = tested on: SN12C renal
SW-620 colon = tested on: SW-620 colon
SNB-19 CNS = tested on: SNB-19 CNS
ACHN renal = tested on: ACHN renal
HOP-62 NSCLC = tested on: HOP-62 NSCLC
HT29 colon = tested on: HT29 colon
M14 melanoma = tested on: M14 melanoma
SF-539 CNS = tested on: SF-539 CNS
SF-268 CNS = tested on: SF-268 CNS
A549 NSCLC = tested on: A549 NSCLC
MALME-3M melanoma = tested on: MALME-3M melanoma
LXFL 529 NSCLC = tested on: LXFL 529 NSCLC
COLO 205 colon = tested on: COLO 205 colon
HOP-18 NSCLC = tested on: HOP-18 NSCLC
DMS 273 small cell lung = tested on: DMS 273 small cell lung
K-562 leukemia = tested on: K-562 leukemia
UACC-62 melanoma = tested on: UACC-62 melanoma
DMS 114 small cell lung = tested on: DMS 114 small cell lung
CCRF-CEM leukemia = tested on: CCRF-CEM leukemia
HL-60(TB) leukemia = tested on: HL-60(TB) leukemia
KM12 colon = tested on: KM12 colon
SR leukemia = tested on: SR leukemia
HCT-116 colon = tested on: HCT-116 colon
RPMI-8226 leukemia = tested on: RPMI-8226 leukemia
KM20L2 colon = tested on: KM20L2 colon

SMILES: CNC(=O)OCc1nc(S(C)=O)n(C)c1COC(=O)NC (configuration not stated)
- TGI (HCT-15 colon): > 100 µM
- TGI (HCC-2998 colon): > 100 µM
- TGI (OVCAR-5 ovarian): > 100 µM
- TGI (SK-MEL-5 melanoma): > 46.4 µM
- TGI (NCI-H460 lung): > 100 µM
- TGI (A498 renal): > 65.6 µM
- TGI (SK-MEL-28 melanoma): > 100 µM
- TGI (RXF 393 renal): > 100 µM
- TGI (RXF-631 renal): > 100 µM
- TGI (DLD-1 colon): > 100 µM
- TGI (XF 498 CNS): > 100 µM
- TGI (OVCAR-4 ovarian): > 71.6 µM
- TGI (UO-31 renal): > 100 µM
- TGI (OVCAR-3 ovarian): > 100 µM
- TGI (NCI-H522 lung): > 100 µM
- TGI (NCI-H23 lung): > 100 µM
- TGI (UACC-257 melanoma): > 100 µM
- TGI (SK-OV-3 ovarian): > 73.3 µM
- TGI (EKVX NSCLC): > 100 µM
- TGI (MOLT-4 leukemia): > 100 µM
- TGI (SK-MEL-2 melanoma): > 100 µM
- TGI (CAKI-1 renal): > 93.8 µM
- TGI (LOX IMVI melanoma): > 100 µM
- TGI (HOP-92 NSCLC): > 77.8 µM
- TGI (TK-10 renal): > 100 µM
- TGI (NCI-H226 lung): > 100 µM
- TGI (SNB-78 CNS): > 92.1 µM
- TGI (IGROV1 ovarian): > 82.1 µM
- TGI (MCF7 breast): > 100 µM
- TGI (OVCAR-8 ovarian): > 100 µM
- TGI (SN12K1 renal): > 100 µM
- TGI (SNB-75 CNS): > 100 µM
- TGI (786-0 renal): > 100 µM
- TGI (M19-MEL melanoma): > 63.2 µM
- TGI (P388/ADR leukemia): > 100 µM
- TGI (P388 leukemia): > 100 µM
- TGI (NCI/ADR-RES ovarian): > 100 µM
- TGI (SF-295 CNS): > 100 µM
- TGI (U251 CNS): > 100 µM
- TGI (SN12C renal): > 100 µM
- TGI (SW-620 colon): > 46.4 µM
- TGI (SNB-19 CNS): > 100 µM
- TGI (ACHN renal): > 78.6 µM
- TGI (HOP-62 NSCLC): > 100 µM
- TGI (HT29 colon): > 100 µM
- TGI (M14 melanoma): > 48.3 µM
- TGI (SF-539 CNS): > 100 µM
- TGI (SF-268 CNS): > 100 µM
- TGI (A549 NSCLC): > 46.4 µM
- TGI (MALME-3M melanoma): > 100 µM
- TGI (LXFL 529 NSCLC): > 51.8 µM
- TGI (COLO 205 colon): > 62.6 µM
- TGI (HOP-18 NSCLC): > 100 µM
- TGI (DMS 273 small cell lung): > 100 µM
- TGI (K-562 leukemia): > 100 µM
- TGI (UACC-62 melanoma): > 65.9 µM
- TGI (DMS 114 small cell lung): > 56.2 µM
- TGI (CCRF-CEM leukemia): > 100 µM
- TGI (HL-60(TB) leukemia): > 100 µM
- TGI (KM12 colon): > 100 µM
- TGI (SR leukemia): > 100 µM
- TGI (HCT-116 colon): > 100 µM
- TGI (RPMI-8226 leukemia): > 100 µM
- TGI (KM20L2 colon): > 100 µM

SMILES: C=C1CC(OC)(C(O)C(=O)N[C@H]2OCO[C@H]3C2O[C@H](C[C@@H](CO)OC)C(C)(C)C3OC)O[C@H](C)[C@@H]1C (some centres not stated)
- TGI (SK-MEL-5 melanoma): < 0.00932 µM
- TGI (NCI-H460 lung): < 0.00932 µM
- TGI (A498 renal): < 0.00932 µM
- TGI (RXF 393 renal): < 0.00932 µM
- TGI (DLD-1 colon): < 0.00932 µM
- TGI (OVCAR-4 ovarian): < 0.00932 µM
- TGI (OVCAR-3 ovarian): < 0.00932 µM
- TGI (UACC-257 melanoma): < 0.00932 µM
- TGI (SK-OV-3 ovarian): < 0.00932 µM
- TGI (MOLT-4 leukemia): > 93.2 µM
- TGI (CAKI-1 renal): < 0.00932 µM
- TGI (LOX IMVI melanoma): < 0.00932 µM
- TGI (NCI-H226 lung): < 0.00932 µM
- TGI (IGROV1 ovarian): < 0.00932 µM
- TGI (MCF7 breast): > 93.2 µM
- TGI (SNB-75 CNS): < 0.00932 µM
- TGI (M19-MEL melanoma): < 0.00932 µM
- TGI (P388 leukemia): > 93.2 µM
- TGI (NCI/ADR-RES ovarian): 0.016 µM
- TGI (SF-295 CNS): < 0.00932 µM
- TGI (U251 CNS): < 0.00932 µM
- TGI (SN12C renal): 0.0114 µM
- TGI (SW-620 colon): < 0.00932 µM
- TGI (SNB-19 CNS): < 0.00932 µM
- TGI (HT29 colon): < 0.00932 µM
- TGI (A549 NSCLC): < 0.00932 µM
- TGI (COLO 205 colon): < 0.00932 µM
- TGI (HOP-18 NSCLC): < 0.00932 µM
- TGI (K-562 leukemia): > 93.2 µM
- TGI (UACC-62 melanoma): < 0.00932 µM
- TGI (CCRF-CEM leukemia): 0.0532 µM
- TGI (HCT-116 colon): < 0.00932 µM
- TGI (RPMI-8226 leukemia): < 0.00932 µM
- TGI (KM20L2 colon): < 0.00932 µM

SMILES: Nc1nc(=O)n(C2OC(CO)C(O)C2O)cc1F (configuration not stated)
- TGI (HCT-15 colon): > 100 µM
- TGI (HCC-2998 colon): > 100 µM
- TGI (OVCAR-5 ovarian): > 81.3 µM
- TGI (SK-MEL-5 melanoma): > 100 µM
- TGI (A498 renal): > 100 µM
- TGI (SK-MEL-28 melanoma): > 100 µM
- TGI (RXF 393 renal): > 100 µM
- TGI (DLD-1 colon): > 100 µM
- TGI (XF 498 CNS): > 100 µM
- TGI (OVCAR-4 ovarian): > 100 µM
- TGI (UO-31 renal): > 100 µM
- TGI (OVCAR-3 ovarian): > 100 µM
- TGI (NCI-H522 lung): > 100 µM
- TGI (NCI-H23 lung): > 100 µM
- TGI (UACC-257 melanoma): > 100 µM
- TGI (SK-OV-3 ovarian): > 100 µM
- TGI (EKVX NSCLC): > 40.9 µM
- TGI (MOLT-4 leukemia): 0.268 µM
- TGI (SK-MEL-2 melanoma): > 100 µM
- TGI (CAKI-1 renal): > 100 µM
- TGI (LOX IMVI melanoma): > 38 µM
- TGI (HOP-92 NSCLC): 5.9 µM
- TGI (NCI-H226 lung): > 100 µM
- TGI (SNB-78 CNS): > 100 µM
- TGI (IGROV1 ovarian): > 100 µM
- TGI (MCF7 breast): > 100 µM
- TGI (OVCAR-8 ovarian): > 100 µM
- TGI (SN12K1 renal): > 100 µM
- TGI (SNB-75 CNS): > 56.4 µM
- TGI (M19-MEL melanoma): > 100 µM
- TGI (P388/ADR leukemia): 0.182 µM
- TGI (P388 leukemia): 0.0341 µM
- TGI (NCI/ADR-RES ovarian): > 100 µM
- TGI (SF-295 CNS): > 100 µM
- TGI (U251 CNS): > 100 µM
- TGI (SN12C renal): > 100 µM
- TGI (SW-620 colon): > 100 µM
- TGI (SNB-19 CNS): > 100 µM
- TGI (HOP-62 NSCLC): 0.175 µM
- TGI (HT29 colon): > 100 µM
- TGI (SF-539 CNS): > 100 µM
- TGI (SF-268 CNS): > 100 µM
- TGI (A549 NSCLC): > 100 µM
- TGI (COLO 205 colon): > 100 µM
- TGI (HOP-18 NSCLC): > 100 µM
- TGI (DMS 273 small cell lung): > 100 µM
- TGI (K-562 leukemia): > 100 µM
- TGI (UACC-62 melanoma): 5.3 µM
- TGI (DMS 114 small cell lung): 3.26 µM
- TGI (CCRF-CEM leukemia): > 43.8 µM
- TGI (KM12 colon): > 100 µM
- TGI (HCT-116 colon): > 100 µM
- TGI (RPMI-8226 leukemia): > 100 µM
- TGI (KM20L2 colon): > 100 µM
